Measurements: patent US20150208658A1, “METHODS OF SOIL PEST CONTROL” (Syngenta Participations AG, priority 2012, published 2015)
Where two headings read alike, the source gives them in different places.

How the values were obtained:
Diabrotica balteata [1] = assay: Diabrotica balteata (Corn Rootworm): 24-well microtiter plate with artificial diet, L2 larvae, larval mortality; assay type: in vivo; settings: for pest or weed control at 200 ppm / pest or weed control at 50 µg/mL: Diabrotica balteata, 120 h; for pest or weed control at 200 ppm: read-out: control of Diabrotica balteata; for pest or weed control at 50 µg/mL: read-out: control of Diabrotica balteata at 50 ppm or less; for Control/%: comparative example
Experimental: Diabrotica balteata (Corn Rootworm)
[…] After drying, the MTP's are infested with L2 larvae (6-10 per well). After an incubation period of 5 days, samples are checked for larval mortality.
Compounds are tested according to the above method.

Diabrotica balteata [2] = assay: Diabrotica balteata (Banded Cucumber Beetle): treated corn seeds sown in soil pots, seedlings infested with 3rd stage larvae; assay type: in vivo; settings: seed treatment, 6 days incubation
Experimental: Diabrotica balteata (Banded Cucumber Beetle)
Treated corn seeds are sown in a 350 ml pot filled with soil. Two weeks after sowing phytotoxicity (lack of shoot—missing emergence) in comparison to the control is estimated and expressed in percentage. Furthermore, corn seedlings are infested with 3rd stage larvae of Diabrotica balteata. After an incubation period of 6 days survived larvae are counted and larval growth is assessed. Larval growth indicates the number of larvae with size differences between the larvae in the control and treatments, expressed in percentage.

[3] = 50 ppm or less, L2 larvae, 5 days
[4] = application rate 200 ppm (concentration in well 18 ppm), L2 larvae, 5 days

Compound: CC(=O)N[C@@H](C)c1ccc(C2=NOC(c3cc(Cl)cc(Cl)c3)(C(F)(F)F)C2)cc1 (stereo partly drawn) [Compound B2, N-[(1S)-1-[4-[5-(3,5-dichlorophenyl)-5-(trifluoromethyl)-4H-isoxazol-3-yl]phenyl]ethyl]acetamide]
- pest or weed control at 200 ppm (Diabrotica balteata [1]): ≥ 80%
- pest or weed control at 50 µg/mL (Diabrotica balteata [1]): > 80%

Compound: O=C(CC(F)(F)F)NC1CCc2cc(C3=NOC(c4cc(Cl)cc(Cl)c4)(C(F)(F)F)C3)ccc21 (stereo not shown) [Compound E7]
- % larval mortality (Diabrotica balteata [2]; application rate 0.3 mg/seed): 60%

Compound: N#Cc1cc(C2=NOC(c3cc(Cl)cc(Cl)c3)(C(F)(F)F)C2)ccc1-n1cncn1 (stereo not shown) [Compound C4]
- % larval mortality (Diabrotica balteata [2]; application rate 1 mg/seed): 100%

Compound: CC(C)C(=O)NCc1ccc(C2=NOC(c3cc(Cl)cc(Cl)c3)(C(F)(F)F)C2)cc1Cl (stereo not shown) [Compound A2]
- pest or weed control at 200 ppm (Diabrotica balteata [1]): ≥ 80%
- pest or weed control at 50 µg/mL (Diabrotica balteata [1]): > 80%

Compound: FC(F)(F)C1(c2cc(Cl)cc(Cl)c2)CC(c2ccc(-n3cncn3)cc2)=NO1 (stereo not shown) [reference compound]
- Control/% (Diabrotica balteata [1]; application rate 3 ppm): 0%
- Control/% (Diabrotica balteata [1]; application rate 12.5 ppm): 85%

Compound: C[C@H](NC(=O)C1CC1)c1ccc(C2(C(F)(F)F)CN=C(c3cc(Cl)c(Cl)c(Cl)c3)C2)cc1 (stereo partly drawn) [Compound B3, N-[(1S)-1-[4-[5-(3,4,5-trichlorophenyl)-3-(trifluoromethyl)-2,4-dihydropyrrol-3-yl]phenyl]ethyl]cyclopropanecarboxamide]
- pest or weed control at 50 µg/mL (Diabrotica balteata [1]; [3]): > 80%
- pest or weed control at 200 ppm (Diabrotica balteata [1]; [4]): ≥ 80%
- % larval mortality (Diabrotica balteata [2]; application rate 0.3 mg/seed): 80%

Compound: O=C(CC(F)(F)F)NC1CCc2cc(C3=NOC(c4cc(Cl)cc(Cl)c4)(C(F)(F)F)C3)ccc21 (stereo not shown) [drawing 74]
- Control/% (Diabrotica balteata [1]; application rate 3 ppm): 100%
- Control/% (Diabrotica balteata [1]; application rate 12.5 ppm): 100%

Compound: O=C(NC1CCc2cc(C3=NCC(c4cc(Cl)cc(Cl)c4)(C(F)(F)F)C3)ccc21)C(F)(F)F (stereo not shown) [Compound E5, N-[5-[3-(3,5-dichlorophenyl)-3-(trifluoromethyl)-2,4-dihydropyrrol-5-yl]indan-1-yl]-2,2,2-trifluoro-acetamide]
- pest or weed control at 50 µg/mL (Diabrotica balteata [1]; [3]): > 80%
- pest or weed control at 200 ppm (Diabrotica balteata [1]; [4]): ≥ 80%

Compound: CC(=O)NC1CCc2cc(C3=NCC(c4cc(Cl)cc(Cl)c4)(C(F)(F)F)C3)ccc21 (stereo not shown) [Compound E2, N-[5-[3-(3,5-dichlorophenyl)-3-(trifluoromethyl)-2,4-dihydropyrrol-5-yl]indan-1-yl]acetamide]
- pest or weed control at 50 µg/mL (Diabrotica balteata [1]; [3]): > 80%
- pest or weed control at 200 ppm (Diabrotica balteata [1]; [4]): ≥ 80%

Compound: N#Cc1cc(C2=NOC(c3cc(Cl)c(F)c(Cl)c3)(C(F)(F)F)C2)ccc1-n1cc(F)cn1 (stereo not shown) [Compound D2]
- % larval mortality (Diabrotica balteata [2]; application rate 1 mg/seed): 100%

Compound: CCC(=O)NC1CCc2cc(N3CCC(c4cc(C(F)(F)F)cc(C(F)(F)F)c4)(C(F)(F)F)C3)ccc21 (stereo not shown) [Compound E6, N-[5-[3-[3,5-bis(trifluoromethyl)phenyl]-3-(trifluoromethyl)pyrrolidin-1-yl]indan-1-yl]propanamide]
- pest or weed control at 50 µg/mL (Diabrotica balteata [1]; [3]): > 80%
- pest or weed control at 200 ppm (Diabrotica balteata [1]; [4]): ≥ 80%

Compound: N#Cc1cnn(-c2ccc(C3=NOC(c4cc(Cl)c(F)c(Cl)c4)(C(F)(F)F)C3)cc2C#N)c1 (stereo not shown) [Compound D1]
- % larval mortality (Diabrotica balteata [2]; application rate 1 mg/seed): 100%

Compound: O=C(NC1CCc2cc(C3=NCC(c4cc(Cl)cc(Cl)c4)(C(F)(F)F)C3)ccc21)C1CC1 (stereo not shown) [Compound E4, N-[5-[3-(3,5-dichlorophenyl)-3-(trifluoromethyl)-2,4-dihydropyrrol-5-yl]indan-1-yl]cyclopropanecarboxamide]
- pest or weed control at 50 µg/mL (Diabrotica balteata [1]; [3]): > 80%
- pest or weed control at 200 ppm (Diabrotica balteata [1]; [4]): ≥ 80%

Compound: C[C@H](NC(=O)C1CC1)c1ccc(N2CCC(c3cc(Cl)cc(Cl)c3)(C(F)(F)F)C2)cc1 (stereo partly drawn) [Compound B1, N-[(1S)-1-[4-[3-(3,5-dichlorophenyl)-3-(trifluoromethyl)pyrrolidin-1-yl]phenyl]ethyl]cyclopropanecarboxamide]
- pest or weed control at 50 µg/mL (Diabrotica balteata [1]; [3]): > 80%
- pest or weed control at 200 ppm (Diabrotica balteata [1]; [4]): ≥ 80%

Compound: Cc1cc(C2=NOC(c3cc(Cl)cc(Cl)c3)(C(F)(F)F)C2)ccc1-n1cccn1 (stereo not shown) [Compound D5]
- control of Diabrotica balteata (Diabrotica balteata [1]; [4]): lower control

Compound: CCC(=O)NC1CCc2cc(C3=NOC(c4cc(Cl)cc(Cl)c4)(C(F)(F)F)C3)ccc21 (stereo not shown) [Compound E1]
- % larval mortality (Diabrotica balteata [2]; application rate 0.3 mg/seed): 83%

Compound: N#Cc1cc(C2=NOC(c3cc(Cl)c(F)c(Cl)c3)(C(F)(F)F)C2)ccc1-n1nc(C(F)(F)F)cc1C(F)(F)F (stereo not shown) [Compound D10]
- control of Diabrotica balteata (Diabrotica balteata [1]; [4]): No activity

Compound: N#Cc1cc(C2=NCC(c3cc(Cl)c(Cl)c(Cl)c3)(C(F)(F)F)C2)ccc1-n1cncn1 (stereo not shown) [Compound C2, 2-(1,2,4-triazol-1-yl)-5-[3-(3,4,5-trichlorophenyl)-3-(trifluoromethyl)-2,4-dihydropyrrol-5-yl]benzonitrile]
- pest or weed control at 50 µg/mL (Diabrotica balteata [1]; [3]): > 80%
- pest or weed control at 200 ppm (Diabrotica balteata [1]; [4]): ≥ 80%
- % larval mortality (Diabrotica balteata [2]; application rate 0.3 mg/seed): 44%

Compound: CCC(=O)NCc1ccc(C2=NOC(c3cc(Cl)cc(Cl)c3)(C(F)(F)F)C2)cc1Cl (stereo not shown) [Compound A3]
- pest or weed control at 200 ppm (Diabrotica balteata [1]): ≥ 80%
- pest or weed control at 50 µg/mL (Diabrotica balteata [1]): > 80%

Compound: N#Cc1cc(C2=NOC(c3cc(Cl)c(F)c(Cl)c3)(C(F)(F)F)C2)ccc1-n1cncn1 (stereo not shown) [Compound C3]
- pest or weed control at 200 ppm (Diabrotica balteata [1]): ≥ 80%
- pest or weed control at 50 µg/mL (Diabrotica balteata [1]): > 80%
- % larval mortality (Diabrotica balteata [2]; application rate 1 mg/seed): 83%

Compound: C[C@H](NC(=O)C1CC1)c1ccc(N2CCC(c3cc(C(F)(F)F)cc(C(F)(F)F)c3)(C(F)(F)F)C2)cc1 (stereo partly drawn) [Compound B4, N-[(1S)-1-[4-[3-[3,5-bis(trifluoromethyl)phenyl]-3-(trifluoromethyl)pyrrolidin-1-yl]phenyl]ethyl]cyclopropanecarboxamide]
- pest or weed control at 50 µg/mL (Diabrotica balteata [1]; [3]): > 80%
- pest or weed control at 200 ppm (Diabrotica balteata [1]; [4]): ≥ 80%
- % larval mortality (Diabrotica balteata [2]; application rate 0.3 mg/seed): 78%

Compound: CC(=O)NCc1ccc(N2CCC(c3cc(Cl)cc(Cl)c3)(C(F)(F)F)C2)cc1C (stereo not shown) [Compound A4, N-{4-[3-(3,5-dichlorophenyl)-3-(trifluoromethyl)pyrrolidin1-yl]-2-methyl-benzyl)acetamide]
- pest or weed control at 50 µg/mL (Diabrotica balteata [1]; [3]): > 80%
- pest or weed control at 200 ppm (Diabrotica balteata [1]; [4]): ≥ 80%

Compound: N#Cc1cc(C2=NOC(c3cc(Cl)c(F)c(Cl)c3)(C(F)(F)F)C2)ccc1-n1ccc(C(F)(F)F)n1 (stereo not shown) [Compound D11]
- control of Diabrotica balteata (Diabrotica balteata [1]; [4]): No activity

Compound: CC(=O)NCc1ccc(C2=NCC(c3cc(Cl)cc(Cl)c3)(C(F)(F)F)C2)cc1Br (stereo not shown) [Compound A5, N-{2-bromo-4-[4-(3,5-dichlorophenyl)-4-trifluoromethyl-4,5-dihydro-3H-pyrrol-2yl]-benzyl}acetamide]
- pest or weed control at 50 µg/mL (Diabrotica balteata [1]; [3]): > 80%
- pest or weed control at 200 ppm (Diabrotica balteata [1]; [4]): ≥ 80%

Compound: N#Cc1cc(C2=NOC(c3cc(Cl)cc(Cl)c3)(C(F)(F)F)C2)ccc1-n1cncn1 (stereo not shown) [drawing 76]
- Control/% (Diabrotica balteata [1]; application rate 3 ppm): 65%
- Control/% (Diabrotica balteata [1]; application rate 12.5 ppm): 100%

Compound: O=C(NCC(F)(F)F)N1CCc2cc(C3=NOC(c4cc(Cl)cc(Cl)c4)(C(F)(F)F)C3)ccc21 (stereo not shown) [reference compound]
- Control/% (Diabrotica balteata [1]; application rate 12.5 ppm): 65%

Compound: CCC(=O)NC1CCc2cc(C3=NCC(c4cc(Cl)cc(Cl)c4)(C(F)(F)F)C3)ccc21 (stereo not shown) [Compound E3, N-[5-[3-(3,5-dichlorophenyl)-3-(trifluoromethyl)-2,4-dihydropyrrol-5-yl]indan-1-yl]propanamide]
- pest or weed control at 50 µg/mL (Diabrotica balteata [1]; [3]): > 80%
- pest or weed control at 200 ppm (Diabrotica balteata [1]; [4]): ≥ 80%
